For one experiment, the system named is rat CRF2R α receptor. Briefly: cAMP agonism at rat CRF2R α receptor in A7R5 rat aortic smooth muscle cells (Example 8). The experiment is classed as cell-based. The conditions noted are these: cAMP HTRF, A7R5 rat aortic smooth muscle cell line, 0% HSA. The protocol: Cells were grown in a T175 culture flask placed at 37° C. to near confluence in medium (DMEM/10% FBS) and collected in 2 ml vials in cell culture medium containing 10% DMSO in a concentration of 10-50 million cells/ml. Each vial contained 1.8 ml cells. The vials were slowly frozen to −80° C. in isopropanol and then transferred in liquid nitrogen for storage. Prior to use, frozen cells were thawed quickly at 37° C. and washed (5 min at 900 rpm) with 20 ml cell buffer (1×HBSS; 20 mM HEPES; 0% or 0.1% HSA). Cells were resuspended in assay buffer (cell buffer plus 2 mM IBMX) and adjusted to a cell density of 1 million cells/ml. For measurement, 5 μl cells (final […]) and 5 μL of test compound were added to a 384-well plate, followed by incubation for 30 minutes at room temperature.
The CAMP content of cells was determined using a kit from Cisbio Corp. (cat. no. 62AM4PEC) based on HTRF (Homogenous Time Resolved Fluorescence). After addition of HTRF reagents diluted in lysis buffer (kit components), the plates were incubated for 1 h, followed by measurement of the fluorescence ratio at 665/620 nm. The percent activity value (E %) was calculated by setting 1000 nM of urocortin 2 (UCN2) as 100%. The in vitro potency of the compounds was quantified by determining the concentrations that caused 50% activation of maximal response (EC50).
Using the procedure described in Example 7, the activity of the compounds at the rat CRF2R α receptor was assessed. The A7R5 rat aortic smooth muscle cell line was used in this study.
Background: In TR-FRET formats the signal depends on donor and acceptor labels being close together.

The next experiment deals with T1, human CRF2α receptor (Homo sapiens, UniProt Q13324).
T1 construct: expressed in transfected cells; host or cells: TeloHEAC
T1 sequence (Q13324 1-411): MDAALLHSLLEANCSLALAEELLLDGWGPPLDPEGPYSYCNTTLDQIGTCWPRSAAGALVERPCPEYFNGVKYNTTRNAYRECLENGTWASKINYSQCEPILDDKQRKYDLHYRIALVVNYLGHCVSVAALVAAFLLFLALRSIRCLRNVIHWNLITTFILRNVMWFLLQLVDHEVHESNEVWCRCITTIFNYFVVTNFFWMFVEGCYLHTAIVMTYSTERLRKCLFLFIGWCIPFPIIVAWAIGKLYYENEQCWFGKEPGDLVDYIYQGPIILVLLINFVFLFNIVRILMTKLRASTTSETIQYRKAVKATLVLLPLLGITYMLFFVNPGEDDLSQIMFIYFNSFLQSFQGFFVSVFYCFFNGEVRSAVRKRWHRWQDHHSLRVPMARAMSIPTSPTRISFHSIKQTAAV
Briefly: cAMP agonism at human CRF2 α receptor in TeloHEAC cells (Example 7). The conditions noted are these: cAMP HTRF, TeloHEAC cells stably expressing human CRF2 α. The experiment is classed as cell-based. In a few lines:
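HTRF ratio 665/620 nm, read 1 h after lysis reagents, reports cAMP. Cells: thawed stocks, 2000/well, 30 min RT with compound in HBSS, 20 mM HEPES, 0 or 0.1% HSA, 2 mM IBMX. Activity normalised to UCN2 1000 nM = 100%; EC50 from half-maximal activation.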

Where [1] appears, read: 0% HSA, read-out: EC50 [nM], 0% HSA.
Setting [2] is: 0.1% HSA, read-out: EC50 [nM], 0.1% HSA.

Read-outs that look alike come from different tables or passages of the source. Starred links: 1 amine or outer side, 2 acyl side, 3 side chain; linkers in the order of their positions; H or OH if unused. Non-standard residues stand in square brackets, D forms with d. Residues, ends and D or L forms follow the SMILES beside them. Groups on a side chain read outwards from the residue. *: point of attachment. C18 diacid = O=C(O)CCCCCCCCCCCCCCCCC(=O)*; γGlu = O=C(O)[C@H](CCC(=O)[*:2])N[*:1]; Palmitoyl = CCCCCCCCCCCCCCCC(=O)*; AEEA = NCCOCCOCC(=O)O; Aib = CC(C)(N)C(=O)O

For orientation: EC50 means the midpoint of the concentration-response curve.

For the compound `CC[C@H](C)[C@H](N)C(=O)N[C@H](C(=O)N[C@@H](CC(C)C)C(=O)N[C@@H](CO)C(=O)N[C@@H](CC(C)C)C(=O)N[C@@H](CC(=O)O)C(=O)N[C@H](C(=O)N1CCC[C@H]1C(=O)N[C@H](C(=O)N[C@@H](CCCCN)C(=O)N[C@@H](CC(C)C)C(=O)N[C@@H](CCCCNC(=O)COCCOCCNC(=O)COCCOCCNC(=O)CC[C@H](NC(=O)CCCCCCCCCCCCCCCCC(=O)O)C(=O)O)C(=O)N[C@@H](CCC(N)=O)C(=O)N[C@H](C(=O)N[C@@H](CC(C)C)C(=O)N[C@@H](CC(C)C)C(=O)N[C@@H](CCC(=O)O)C(=O)N[C@@H](CCC(N)=O)C(=O)N[C@@H](C)C(=O)N[C@@H](CCCCN)C(=O)N[C@@H](CCC(N)=O)C(=O)N[C@@H](CCCCN)C(=O)NC(C)(C)C(=O)N[C@@H](CC(C)C)C(=O)N[C@@H](CCCCN)C(=O)N[C@@H](C)C(=O)N[C@@H](CCC(N)=O)C(=O)N[C@@H](C)C(=O)N[C@@H](CCC(=O)O)C(=O)N[C@H](C(=O)N[C@@H](CC(N)=O)C(=O)N[C@H](C(=O)N[C@@H](CCCNC(=N)N)C(=O)N[C@H](C(=O)N[C@@H](CC(C)C)C(=O)N[C@@H](CCC(=O)O)C(=O)N[C@@H](CCCNC(=N)N)C(=O)N[C@H](C(N)=O)C(C)C)[C@@H](C)CC)C(C)C)[C@@H](C)O)[C@@H](C)CC)[C@@H](C)CC)C(C)C)C(C)C` [compound 45] (H-IVLSLDVPIKLK([AEEA-AEEA-γGlu-C18 diacid])QILLEQAKQK[Aib]LKAQAETNVRILERV-NH2), the EC50 in the experiment with rat CRF2R α receptor came to 47.3 nM; at human CRF2α receptor (setting [1]), 3.77 nM.
For the compound `CC[C@H](C)[C@H](NC(C)=O)C(=O)N[C@H](C(=O)N[C@@H](CC(C)C)C(=O)N[C@@H](CO)C(=O)N[C@@H](CC(C)C)C(=O)N[C@@H](CC(=O)O)C(=O)N[C@@H](C(=O)N1CCC[C@H]1C(=O)N[C@H](C(=O)N[C@@H](CCCCN)C(=O)N[C@@H](CC(C)C)C(=O)N[C@@H](CCCCNC(=O)COCCOCCNC(=O)COCCOCCNC(=O)CC[C@H](NC(=O)CCCCCCCCCCCCCCCCC(=O)O)C(=O)O)C(=O)N[C@@H](CCC(N)=O)C(=O)N[C@H](C(=O)N[C@@H](CC(C)C)C(=O)N[C@@H](CC(C)C)C(=O)N[C@@H](CCC(=O)O)C(=O)N[C@@H](CCC(N)=O)C(=O)N[C@@H](C)C(=O)N[C@@H](CCCNC(=N)N)C(=O)N[C@@H](CCC(N)=O)C(=O)N[C@@H](CCCCN)C(=O)NC(C)(C)C(=O)N[C@@H](CCC(N)=O)C(=O)N[C@@H](CCCNC(=N)N)C(=O)N[C@@H](CCC(=O)O)C(=O)N[C@@H](CCC(N)=O)C(=O)N[C@@H](C)C(=O)N[C@@H](CCC(=O)O)C(=O)N[C@@H](CCCCN)C(=O)N[C@@H](CC(N)=O)C(=O)N[C@@H](CCCCN)C(=O)N[C@@H](CCC(N)=O)C(=O)N[C@H](C(=O)N[C@@H](CC(C)C)C(=O)N[C@@H](CCC(=O)O)C(=O)N[C@@H](CCC(N)=O)C(=O)N[C@H](C(N)=O)C(C)C)[C@@H](C)CC)[C@@H](C)CC)[C@@H](C)CC)C(C)C)C(C)C` [compound 157] (Ac-IVLSLD[dV]PIKLK([AEEA-AEEA-γGlu-C18 diacid])QILLEQARQK[Aib]QREQAEKNKQILEQV-NH2), the figures for the EC50 in the experiment with rat CRF2R α receptor, at human CRF2α receptor (setting [1]) and at human CRF2α receptor (setting [2]) were 1.14 nM, 0.12 nM and 2.53 nM, respectively.
The matching figures for `CC[C@H](C)[C@H](NC(C)=O)C(=O)N[C@H](C(=O)N[C@@H](CC(C)C)C(=O)N[C@@H](CO)C(=O)N[C@@H](CC(C)C)C(=O)N[C@@H](CC(=O)O)C(=O)N[C@@H](C(=O)N1CCC[C@H]1C(=O)N[C@H](C(=O)N[C@@H](CCCCN)C(=O)N[C@@H](CC(C)C)C(=O)N[C@@H](CCCCNC(=O)COCCOCCNC(=O)COCCOCCNC(=O)CC[C@H](NC(=O)CCCCCCCCCCCCCCCCC(=O)O)C(=O)O)C(=O)N[C@@H](CCC(N)=O)C(=O)N[C@H](C(=O)N[C@@H](CC(C)C)C(=O)N[C@@H](CC(C)C)C(=O)N[C@@H](CCC(=O)O)C(=O)N[C@@H](CCC(N)=O)C(=O)N[C@@H](CCC(=O)O)C(=O)N[C@@H](CCCNC(=N)N)C(=O)N[C@@H](CCC(N)=O)C(=O)N[C@@H](CCCCN)C(=O)NC(C)(C)C(=O)N[C@@H](CCC(N)=O)C(=O)N[C@@H](CCCNC(=N)N)C(=O)N[C@@H](CCC(=O)O)C(=O)N[C@@H](CCC(N)=O)C(=O)N[C@@H](C)C(=O)N[C@@H](CCC(=O)O)C(=O)N[C@@H](CCCCN)C(=O)N[C@@H](CC(N)=O)C(=O)N[C@@H](CCCCN)C(=O)N[C@@H](CCC(N)=O)C(=O)N[C@H](C(=O)N[C@@H](CC(C)C)C(=O)N[C@@H](CCC(=O)O)C(=O)N[C@@H](CCC(N)=O)C(=O)N[C@H](C(N)=O)C(C)C)[C@@H](C)CC)[C@@H](C)CC)[C@@H](C)CC)C(C)C)C(C)C` [compound 158] (Ac-IVLSLD[dV]PIKLK([AEEA-AEEA-γGlu-C18 diacid])QILLEQERQK[Aib]QREQAEKNKQILEQV-NH2): 5.29 nM, 0.42 nM and 5.63 nM.
Compound `CC[C@H](C)[C@H](N)C(=O)N[C@H](C(=O)N[C@@H](CC(C)C)C(=O)N[C@@H](CO)C(=O)N[C@@H](CC(C)C)C(=O)N[C@@H](CC(=O)O)C(=O)N[C@@H](C(=O)N1CCC[C@H]1C(=O)N[C@H](C(=O)N[C@@H](Cc1c[nH]cn1)C(=O)N[C@@H](CC(C)C)C(=O)N[C@@H](CCCCNC(=O)COCCOCCNC(=O)COCCOCCNC(=O)CC[C@H](NC(=O)CCCCCCCCCCCCCCCCC(=O)O)C(=O)O)C(=O)N[C@@H](CCC(N)=O)C(=O)N[C@H](C(=O)N[C@@H](CC(C)C)C(=O)N[C@@H](CC(C)C)C(=O)N[C@@H](CCC(=O)O)C(=O)N[C@@H](CCC(N)=O)C(=O)N[C@@H](CCC(=O)O)C(=O)N[C@@H](CCCNC(=N)N)C(=O)N[C@@H](CCC(N)=O)C(=O)N[C@@H](CCCCN)C(=O)NC(C)(C)C(=O)N[C@@H](CCC(N)=O)C(=O)N[C@@H](CCCNC(=N)N)C(=O)N[C@@H](CCC(=O)O)C(=O)N[C@@H](CCC(N)=O)C(=O)N[C@@H](C)C(=O)N[C@@H](CCC(=O)O)C(=O)N[C@@H](CCCCN)C(=O)N[C@@H](CC(N)=O)C(=O)N[C@@H](CCCCN)C(=O)N[C@@H](CCC(N)=O)C(=O)N[C@H](C(=O)N[C@@H](CC(C)C)C(=O)N[C@@H](CCC(=O)O)C(=O)N[C@@H](CCC(N)=O)C(=O)N[C@H](C(N)=O)C(C)C)[C@@H](C)CC)[C@@H](C)CC)[C@@H](C)CC)C(C)C)C(C)C` [compound 163] (H-IVLSLD[dV]PIHLK([AEEA-AEEA-γGlu-C18 diacid])QILLEQERQK[Aib]QREQAEKNKQILEQV-NH2; N-terminus assumed) came in with an EC50 in the experiment on rat CRF2R α receptor of 1.5 nM.
As for `CCCCCCCCCCCCCCCC(=O)N[C@@H](CCC(=O)NCCCC[C@H](NC(=O)[C@H](CC(C)C)NC(=O)[C@H](CCCCN)NC(=O)[C@@H](NC(=O)[C@@H]1CCCN1C(=O)[C@H](NC(=O)[C@H](CC(=O)O)NC(=O)[C@H](CC(C)C)NC(=O)[C@H](CO)NC(=O)[C@H](CC(C)C)NC(=O)[C@@H](NC(=O)[C@@H](N)[C@@H](C)CC)C(C)C)C(C)C)[C@@H](C)CC)C(=O)N[C@@H](CCC(N)=O)C(=O)N[C@@H](CCCCN)C(=O)N[C@@H](CC(C)C)C(=O)N[C@@H](CC(C)C)C(=O)N[C@@H](CCCCN)C(=O)N[C@@H](CCC(N)=O)C(=O)N[C@@H](CCC(N)=O)C(=O)N[C@@H](CCCNC(=N)N)C(=O)N[C@@H](CCC(N)=O)C(=O)N[C@@H](CCCNC(=N)N)C(=O)N[C@@H](CCCCN)C(=O)N[C@@H](CCC(=O)O)C(=O)N[C@@H](CCCNC(=N)N)C(=O)N[C@@H](CCC(N)=O)C(=O)N[C@@H](CCC(N)=O)C(=O)N[C@@H](C)C(=O)N[C@@H](CCC(=O)O)C(=O)N[C@@H](CCCCN)C(=O)N[C@@H](CC(N)=O)C(=O)N[C@@H](CCCCN)C(=O)N[C@@H](CCCNC(=N)N)C(=O)N[C@H](C(=O)N[C@@H](CC(C)C)C(=O)N[C@@H](CCC(=O)O)C(=O)N[C@@H](CCCNC(=N)N)C(=O)N[C@H](C(N)=O)C(C)C)[C@@H](C)CC)C(=O)O` [compound 227] (H-IVLSLD[dV]PIKLK([γGlu-Palmitoyl])QKLLKQQRQRKERQQAEKNKRILERV-NH2), it took 0.61 nM to reach a half-maximal effect in the experiment with rat CRF2R α receptor (EC50).
